This passage reports IC50 results from ChEMBL document CHEMBL1667722, “Radical scavenging and antioxidant activities of isocoumarins and a phthalide from the endophytic fungus Colletotrichum sp” (J Nat Prod, 2011).

For one assay, the system named is HepG2. As to the kind of experiment: Cytotoxicity against human HepG2 cells by MTT assay. The assay is classed as functional, cell-based. (Tetrazolium dyes change colour on reduction, which living cells bring about.)
Assay [1] in a line: Cytotoxicity against human HuCCA1 cells by MTT assay. The assay is classed as functional, cell-based. The following applies: HuCC-A1.
The test system of the next assay is A549. As to the kind of experiment: Cytotoxicity against human A549 cells by MTT assay. In kind it is functional, cell-based.
Assay [2] relates to Radical scavenging activity. As to the kind of experiment: Antioxidant activity assessed as DPPH radical scavenging activity. In kind it is functional.
The next assay deals with T1, Aromatase (Homo sapiens, UniProt P11511).
T1 sequence (P11511 whole entry): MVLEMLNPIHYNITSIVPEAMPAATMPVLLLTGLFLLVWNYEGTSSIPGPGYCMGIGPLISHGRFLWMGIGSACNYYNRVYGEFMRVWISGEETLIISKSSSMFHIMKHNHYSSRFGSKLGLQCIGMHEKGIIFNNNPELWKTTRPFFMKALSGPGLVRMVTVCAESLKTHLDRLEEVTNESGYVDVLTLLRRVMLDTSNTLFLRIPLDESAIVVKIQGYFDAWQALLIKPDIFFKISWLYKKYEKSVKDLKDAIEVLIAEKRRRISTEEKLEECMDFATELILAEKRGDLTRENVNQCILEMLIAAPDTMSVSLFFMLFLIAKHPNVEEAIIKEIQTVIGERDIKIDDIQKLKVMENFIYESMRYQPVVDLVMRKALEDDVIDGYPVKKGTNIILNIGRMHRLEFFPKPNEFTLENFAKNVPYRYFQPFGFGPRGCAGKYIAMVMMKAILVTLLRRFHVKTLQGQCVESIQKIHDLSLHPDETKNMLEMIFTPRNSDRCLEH
As to the kind of experiment: Inhibition of CYP19.

Assay [3] concerns the target Xanthine dehydrogenase/oxidase (Homo sapiens, UniProt P47989). Nature of the assay: Inhibition of Xanthine oxidase.
A further assay concerns HL-60. Nature of the assay: Antioxidant activity in human HL60 cells assessed as inhibition of TPA-induced superoxide anion radical production. The assay is classed as functional, cell-based.
In the next assay the test system is MOLT-3. As to the kind of experiment: Cytotoxicity against human MOLT3 cells by XTT assay. The assay is classed as functional, cell-based.
Assay [4] is described as follows: Antioxidant activity assessed as inhibition of xanthine-xanthine oxidase generated superoxide anion radical production. In kind it is functional.

Sequence of Xanthine dehydrogenase/oxidase (P47989 whole entry): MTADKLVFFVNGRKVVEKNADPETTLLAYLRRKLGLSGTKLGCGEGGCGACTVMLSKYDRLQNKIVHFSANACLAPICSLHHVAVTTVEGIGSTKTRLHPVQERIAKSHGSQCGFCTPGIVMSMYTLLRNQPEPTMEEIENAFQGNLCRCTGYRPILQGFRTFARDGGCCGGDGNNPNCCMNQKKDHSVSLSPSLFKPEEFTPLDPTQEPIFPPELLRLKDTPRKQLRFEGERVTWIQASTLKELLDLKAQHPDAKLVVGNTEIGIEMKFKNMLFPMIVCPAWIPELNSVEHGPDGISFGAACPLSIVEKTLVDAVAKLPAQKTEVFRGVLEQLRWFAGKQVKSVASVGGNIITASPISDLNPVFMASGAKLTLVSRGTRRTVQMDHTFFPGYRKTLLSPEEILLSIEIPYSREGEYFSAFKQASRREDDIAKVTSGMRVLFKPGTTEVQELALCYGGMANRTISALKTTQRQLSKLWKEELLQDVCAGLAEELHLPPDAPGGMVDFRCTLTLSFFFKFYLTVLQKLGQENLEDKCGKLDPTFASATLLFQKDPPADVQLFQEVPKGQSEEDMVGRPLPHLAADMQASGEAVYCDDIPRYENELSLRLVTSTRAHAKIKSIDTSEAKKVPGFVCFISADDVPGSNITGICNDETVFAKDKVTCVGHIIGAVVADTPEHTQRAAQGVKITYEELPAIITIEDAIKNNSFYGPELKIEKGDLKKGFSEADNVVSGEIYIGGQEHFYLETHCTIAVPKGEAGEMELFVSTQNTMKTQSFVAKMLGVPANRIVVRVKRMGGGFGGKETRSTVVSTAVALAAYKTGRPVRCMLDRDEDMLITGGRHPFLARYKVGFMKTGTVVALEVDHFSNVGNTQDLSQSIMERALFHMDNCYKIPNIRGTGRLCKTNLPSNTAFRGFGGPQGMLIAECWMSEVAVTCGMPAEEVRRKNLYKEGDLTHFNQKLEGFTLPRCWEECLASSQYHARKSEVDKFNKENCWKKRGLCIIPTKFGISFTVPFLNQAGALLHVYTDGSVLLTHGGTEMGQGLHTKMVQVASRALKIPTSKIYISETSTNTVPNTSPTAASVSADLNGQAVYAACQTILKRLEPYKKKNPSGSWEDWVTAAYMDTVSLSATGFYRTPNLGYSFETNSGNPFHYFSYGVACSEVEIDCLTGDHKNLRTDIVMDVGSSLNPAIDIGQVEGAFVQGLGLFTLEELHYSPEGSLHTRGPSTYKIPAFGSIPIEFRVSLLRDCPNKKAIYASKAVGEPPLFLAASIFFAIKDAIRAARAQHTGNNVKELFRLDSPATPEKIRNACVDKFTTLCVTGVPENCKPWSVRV

With `COc1cccc2c1C(=O)c1c(O)c3c(c(O)c1C2=O)C[C@@](O)(C(=O)CO)C[C@@H]3O[C@H]1C[C@H](N)[C@H](O)[C@H](C)O1` [DOXORUBICIN], the figures for the IC50 (in the assay with HepG2; in [1]; in the assay on A549) were 0.29 µM, 0.67 µM and 0.34 µM, respectively.
As to `CCC[C@H](O)C[C@@H]1Cc2cc(OC)c(OC)c(O)c2C(=O)O1` [FUSARENTIN 6,7-DIMETHYLETHER], the IC50 is 121 µM in the assay on HepG2; more than 161 µM in assay [1]; more than 322 µM in assay [2]; more than 16.1 µM at Aromatase; more than 644 µM in assay [3]; more than 161 µM with A549. Further, the IC50 in the assay on HL-60 is more than 128 µM; in the assay with MOLT-3, 115 µM.
In the case of `CCCC(=O)CC[C@H]1OC(=O)c2c1cc(OC)c(OC)c2O` [COLLETOTRIALIDE], the half-maximal inhibitory concentration (IC50) in the assay on HepG2 was more than 162 µM; in assay [1] it was more than 162 µM; in [2], more than 324 µM; against Aromatase, more than 16.2 µM; in assay [3], more than 648 µM; in the assay with A549 it was more than 162 µM. Further, the concentration for half-maximal inhibition (IC50) in the assay with HL-60 was more than 130 µM; with MOLT-3, 148 µM.
As to `CCC[C@@H](O)C[C@H]1OC(=O)c2c(cc(OC)c(OC)c2O)[C@H]1O`, the half-maximal inhibitory concentration (IC50) in assay [2] was more than 306 µM; against Aromatase it was more than 15.3 µM; in assay [3], more than 612 µM; in assay [4], 352 µM; with HL-60 it was more than 122 µM; with MOLT-3, more than 153 µM.
In the case of `O=C1O[C@H]([C@@H](O)CO)C(O)=C1O` [ASCORBIC ACID], the IC50 in assay [2] stood at 21.2 µM.
On to `CCC[C@H]1C[C@H]2OC(=O)c3c(cc(OC)c(O)c3O)[C@H]2O1`, for which the IC50 with HepG2 is 23.7 µM; in assay [1] it was more than 170 µM; in assay [2], 23.4 µM; against Aromatase, more than 16.9 µM; in assay [3], more than 679 µM; in the assay with A549 it was more than 170 µM. Also, the IC50 in assay [4] was 52.6 µM; in the assay with HL-60 it was more than 136 µM; in the assay on MOLT-3, 124 µM.
For the molecule `CCC[C@H](O)C[C@@H]1Cc2cc(OC)c(O)c(O)c2C(=O)O1` [FUSARENTIN 6-METHYL ETHER], the IC50 was 16.4 µM in [2]; more than 16.8 µM at Aromatase; more than 675 µM in assay [3]; 4.3 µM in assay [4]; more than 135 µM in the assay on HL-60; more than 169 µM in the assay with MOLT-3.
With `COc1cc([C@@H]2c3cc4c(cc3[C@@H](O[C@@H]3O[C@@H]5CO[C@@H](C)O[C@H]5[C@H](O)[C@H]3O)[C@H]3COC(=O)[C@H]23)OCO4)cc(OC)c1O` [ETOPOSIDE], the values for the half-maximal inhibitory concentration (IC50) in the assay on HepG2 and with MOLT-3 were 15.8 µM and 0.03 µM, respectively.
With `Oc1ncnc2[nH]ncc12` [ALLOPURINOL], the half-maximal inhibitory concentration (IC50) in [4] was 3 µM.
`CCC[C@H]1C[C@H]2OC(=O)c3c(cc(OC)c(OC)c3O)[C@H]2O1` [MONOCERIN]: the half-maximal inhibitory concentration (IC50) with HepG2 is more than 162 µM; in assay [1], more than 162 µM; in assay [2], more than 324 µM; on Aromatase, more than 16.2 µM; in assay [3], more than 648 µM; in the assay with A549, more than 162 µM. Further, the 50% inhibitory concentration (IC50) in assay [4] is more than 648 µM; with HL-60 it was more than 130 µM; in the assay with MOLT-3, 153 µM.

By IC50 is commonly meant the concentration at which inhibition is half-maximal.
